The source of these data is BindingDB's records for doi:10.1016/j.bmc.2021.116215 (Research Triangle Institute, 2021).

This assay has as its target Cannabinoid receptor 1 (Homo sapiens, UniProt P21554). Briefly: Allosteric antagonist activity at human CB1 receptor expressed in CHO-RD-HGA16 cells overexpressing Galpha16 assessed as inhibition of CP55940-stimulated calcium mobilization preincubated for 15 mins followed by agonist addition and measured every 1 sec for 90 secs by Calcium-3 dye based FLIPR assay.

pIC50: −log10 of the molar value.

Chain of Cannabinoid receptor 1 (P21554 whole entry): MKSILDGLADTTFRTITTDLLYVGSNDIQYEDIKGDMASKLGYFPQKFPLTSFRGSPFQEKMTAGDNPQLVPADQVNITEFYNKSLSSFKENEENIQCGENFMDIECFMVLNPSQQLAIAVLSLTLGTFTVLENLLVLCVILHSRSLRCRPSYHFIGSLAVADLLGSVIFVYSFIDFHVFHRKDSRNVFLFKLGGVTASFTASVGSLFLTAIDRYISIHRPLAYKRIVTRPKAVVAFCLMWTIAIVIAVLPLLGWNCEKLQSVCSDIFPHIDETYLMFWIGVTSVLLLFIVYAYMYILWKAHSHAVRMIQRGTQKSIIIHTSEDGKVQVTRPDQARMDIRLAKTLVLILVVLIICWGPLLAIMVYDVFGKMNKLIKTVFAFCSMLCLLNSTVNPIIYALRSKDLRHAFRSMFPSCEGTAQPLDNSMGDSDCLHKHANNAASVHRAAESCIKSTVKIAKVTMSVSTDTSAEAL

As to `O=C(NC[C@H]1C[C@@H]1c1ccccc1)Nc1ccc(Cl)cc1`, the pIC50 is 5.60.
